Test systems include SN12C; M14; EKVX; NCI-H460; HL-60; DU-145; UACC-62; NCI-H522; HOP-92; ACHN; RXF 393; MCF7; K562; UACC-257; UO-31; IGROV-1; SK-MEL-5; HT-29; RPMI-8226; SR.
What all share (experiment): growth of human tumour cells (NCI), 48 h

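Following 48 hours of exposure in 96-well plates, responses at five concentrations were used to interpolate endpoints linearly. Abbreviation: GI50, concentration required for 50% inhibition of growth.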 The source made the active and inactive calls. Rule as the data show it: active = GI50 up to about 1.1 µM and inactive = higher. Bounds are passed on as bounds.

As for `O=C1CC(NC(=O)C(F)(F)F)c2c(Br)sc(N3CCNCC3)c21` (stereo not drawn), the GI50 in the assay on SN12C, with M14, in the assay on EKVX, in the assay on NCI-H460, in the assay on HL-60 and in the assay with DU-145 was > 100 µM (inactive) each time. Also, the GI50 in the assay with UACC-62 was > 100 µM (inactive); in the assay with NCI-H522 it was > 100 µM (inactive); with HOP-92, 53 µM (inactive); in the assay on ACHN, > 100 µM (inactive); with RXF 393 it was > 100 µM (inactive); in the assay on MCF7 it was > 100 µM (inactive). For the same molecule, the GI50 in the assay with K562 was > 100 µM (inactive); in the assay with UACC-257, > 100 µM (inactive); in the assay with UO-31, 61.4 µM (inactive); with IGROV-1 it was > 100 µM (inactive); in the assay on SK-MEL-5 it was > 100 µM (inactive); with HT-29, 85.7 µM (inactive).
`N#CC(Cc1ccccc1Br)N(CCC1=CCCCC1)C(c1ccccc1)c1ccccc1` (stereo not drawn): the GI50 was 37.9 µM (inactive) with M14; 51.4 µM (inactive) in the assay on EKVX; 57.3 µM (inactive) in the assay with NCI-H460; > 100 µM (inactive) in the assay on DU-145; 97.1 µM (inactive) in the assay with UACC-62; 25.9 µM (inactive) in the assay with NCI-H522. Moreover, the GI50 was 29.7 µM (inactive) in the assay with HOP-92; > 100 µM (inactive) with ACHN; 71.6 µM (inactive) with RXF 393; 31.7 µM (inactive) in the assay on RPMI-8226; 52.4 µM (inactive) in the assay with MCF7; 44.3 µM (inactive) in the assay on K562. Moreover, the GI50 is 61.8 µM (inactive) with UACC-257; 83.2 µM (inactive) in the assay with UO-31; 52.1 µM (inactive) with IGROV-1; 46 µM (inactive) in the assay with SK-MEL-5; 32.9 µM (inactive) in the assay on HT-29.
Consider `CC(C)(C)NC1C2CCC(C)(C1O)C2(C)C` (stereo not drawn), for which the GI50 was > 100 µM (inactive) in the assay on SR; > 100 µM (inactive) in the assay with M14; > 100 µM (inactive) in the assay with EKVX; > 100 µM (inactive) in the assay on NCI-H460; > 100 µM (inactive) with DU-145; 3.67 µM (inactive) in the assay on UACC-62. Moreover, the GI50 in the assay on ACHN is 8.63 µM (inactive); in the assay on RXF 393, > 100 µM (inactive); with RPMI-8226 it was > 100 µM (inactive); in the assay on MCF7 it was 4.14 µM (inactive); in the assay on K562 it was > 100 µM (inactive); in the assay on UACC-257, > 100 µM (inactive). Besides, the GI50 with UO-31, in the assay with IGROV-1, with SK-MEL-5 and in the assay with HT-29 was > 100 µM (inactive) in each case.
As for `COC(=O)NNC(c1ccc(Cl)cc1)c1ccc(Cl)cc1`, the GI50 was 19.5 µM (inactive) in the assay with SN12C; 20.2 µM (inactive) with SR; 15.7 µM (inactive) in the assay with M14; 18.8 µM (inactive) in the assay with EKVX; 16.5 µM (inactive) in the assay on NCI-H460; 21 µM (inactive) with HL-60. For the same molecule, the GI50 was 31 µM (inactive) with DU-145; 16 µM (inactive) in the assay on UACC-62; 19.6 µM (inactive) in the assay on NCI-H522; 10.5 µM (inactive) with RXF 393; 20.9 µM (inactive) with RPMI-8226; 23.7 µM (inactive) with MCF7. The GI50 with K562 was 22.2 µM (inactive); with UACC-257 it was 18.2 µM (inactive); with UO-31 it was 12.5 µM (inactive); with IGROV-1, 16.4 µM (inactive); in the assay on SK-MEL-5 it was 16.5 µM (inactive); in the assay on HT-29 it was 16.5 µM (inactive).
With `COc1cc2c(cc1Cl)[n+]([O-])c(C#N)c(N1CCN(c3ccc([N+](=O)[O-])cc3)CC1)[n+]2[O-]`, the GI50 in the assay with SN12C is 32.6 µM (inactive); with SR, 2.86 µM (inactive); in the assay on M14 it was 17.5 µM (inactive); with EKVX, 28.6 µM (inactive); in the assay with NCI-H460, 7.78 µM (inactive); in the assay with HL-60 it was 51.2 µM (inactive). Besides, the GI50 in the assay with DU-145 was 13.8 µM (inactive); in the assay with UACC-62 it was 11.6 µM (inactive); in the assay with NCI-H522 it was 5.7 µM (inactive); in the assay with ACHN, 14.7 µM (inactive); in the assay with RXF 393 it was 27 µM (inactive); with RPMI-8226, 0.631 µM (active). Moreover, the GI50 in the assay on MCF7 is 6 µM (inactive); with K562 it was 9.29 µM (inactive); in the assay on UACC-257, 14.8 µM (inactive); in the assay on UO-31, 0.938 µM (active); in the assay with IGROV-1 it was 2.17 µM (inactive); with SK-MEL-5, 16.6 µM (inactive). Moreover, the GI50 in the assay on HT-29 is 36.9 µM (inactive).
In the case of `COc1cc(CNC2=NCCC2)cc(OC)c1OC`, the GI50 with SN12C is > 100 µM (inactive); in the assay with M14, > 100 µM (inactive); with EKVX, 56.1 µM (inactive); with NCI-H460, > 100 µM (inactive); in the assay on HL-60, > 100 µM (inactive); in the assay on DU-145, > 100 µM (inactive). Besides, the GI50 with UACC-62, with NCI-H522, with HOP-92, with ACHN, in the assay with RXF 393 and with MCF7 was > 100 µM (inactive) each time. Moreover, the GI50 is 65.5 µM (inactive) with K562; > 100 µM (inactive) in the assay on UACC-257; > 100 µM (inactive) in the assay on UO-31; > 100 µM (inactive) in the assay on IGROV-1; > 100 µM (inactive) in the assay with SK-MEL-5; > 100 µM (inactive) in the assay on HT-29.
Take `CCOP(=O)(OCC)C1CC(O)CN1OC(=O)C(C)(C)C` (stereo not drawn): the GI50 with SN12C, in the assay on SR, in the assay with M14, with EKVX, with DU-145 and with UACC-62 was > 100 µM (inactive) each time. The GI50 with ACHN, in the assay on RPMI-8226, with MCF7, in the assay on K562, in the assay on UACC-257 and in the assay with UO-31 was > 100 µM (inactive) each time. Further, the GI50 in the assay on IGROV-1, in the assay on SK-MEL-5 and in the assay with HT-29 was > 100 µM (inactive) throughout.
As to `Cc1cc(Cc2c(F)c(F)c(Cc3cc(C)no3)c(F)c2F)on1`, the GI50 in the assay with SN12C, in the assay on M14, with EKVX, in the assay with HL-60, in the assay with DU-145 and in the assay on UACC-62 was > 100 µM (inactive) in each case. Also, the GI50 is > 100 µM (inactive) with NCI-H522; 29 µM (inactive) in the assay on HOP-92; > 100 µM (inactive) with ACHN; 33 µM (inactive) in the assay with RXF 393; > 100 µM (inactive) in the assay with RPMI-8226; > 100 µM (inactive) in the assay on MCF7. In addition, the GI50 in the assay on K562 is > 100 µM (inactive); in the assay with UACC-257, > 100 µM (inactive); in the assay on UO-31 it was > 100 µM (inactive); in the assay with IGROV-1, > 100 µM (inactive); with SK-MEL-5, 28.4 µM (inactive); in the assay on HT-29, > 100 µM (inactive).
Consider `NC(=S)N1N=C(c2ccccc2O)CC1c1ccccc1` (stereo not drawn), for which the GI50 with SN12C was 13.8 µM (inactive); in the assay on M14, 11.3 µM (inactive); in the assay with EKVX it was 20.4 µM (inactive); in the assay with NCI-H460 it was 14 µM (inactive); in the assay with HL-60, 3.69 µM (inactive); in the assay on DU-145, 27 µM (inactive). The GI50 is 11.6 µM (inactive) in the assay on UACC-62; 3.99 µM (inactive) in the assay with NCI-H522; 17.1 µM (inactive) with HOP-92; 23.3 µM (inactive) in the assay with ACHN; 12.4 µM (inactive) in the assay with RXF 393; 11.6 µM (inactive) in the assay with RPMI-8226. In addition, the GI50 with MCF7 is 4.45 µM (inactive); in the assay on K562 it was 3.85 µM (inactive); in the assay on UACC-257, 15.3 µM (inactive); with UO-31, 19.3 µM (inactive); with IGROV-1, 11.4 µM (inactive); with SK-MEL-5, 10.2 µM (inactive). In addition, the GI50 with HT-29 was 11 µM (inactive).
For the molecule `COc1ccc(N2C(=O)C3c4[nH]c5ccccc5c4C4C(C)CCCC4C3C2=O)cc1` (stereo not drawn), the GI50 was 40.9 µM (inactive) in the assay on SN12C; > 41.5 µM (inactive) in the assay on M14; > 39.4 µM (inactive) with EKVX; > 63.8 µM (inactive) in the assay on NCI-H460; > 83 µM (inactive) in the assay on DU-145; 48.8 µM (inactive) in the assay on UACC-62. For the same molecule, the GI50 is 7.94 µM (inactive) in the assay with NCI-H522; 35.1 µM (inactive) in the assay with HOP-92; 47.8 µM (inactive) in the assay with ACHN; > 26.6 µM (inactive) in the assay on RXF 393; 12.8 µM (inactive) in the assay on RPMI-8226; 37.2 µM (inactive) in the assay on MCF7. The GI50 is 9.14 µM (inactive) with K562; 39.3 µM (inactive) in the assay with UACC-257; > 76.7 µM (inactive) in the assay on UO-31; 10 µM (inactive) in the assay with IGROV-1; 35 µM (inactive) with SK-MEL-5; 29.7 µM (inactive) in the assay on HT-29.
Take `COc1cc2ccnc3c2c(c1O)N(C)C=C3`: the GI50 with SN12C is 13.5 µM (inactive); with M14 it was 17 µM (inactive); in the assay with EKVX, 17.4 µM (inactive); with NCI-H460 it was 24.9 µM (inactive); in the assay on DU-145, 23.7 µM (inactive); in the assay with UACC-62 it was 9.93 µM (inactive). The GI50 with NCI-H522 is 1.59 µM (inactive); in the assay on HOP-92 it was 21.2 µM (inactive); with ACHN it was 9.48 µM (inactive); in the assay with RXF 393, 14.3 µM (inactive); with RPMI-8226, 4.18 µM (inactive); in the assay with MCF7, 7.35 µM (inactive). Also, the GI50 in the assay on K562 is 4.68 µM (inactive); with UACC-257 it was 15.6 µM (inactive); in the assay on UO-31, 7.66 µM (inactive); in the assay with IGROV-1 it was 6.11 µM (inactive); with SK-MEL-5, 12.8 µM (inactive).

Values taken from ChEMBL document CHEMBL1201862, “PubChem BioAssay data set” (2004).
